# From patent US6737383B1, “Herbicidal oxadiazolidines” (priority 1999, dated 2004)
# What was measured:
# [1] = tested on: winter wheat; assay: Test E winter wheat; type: in vivo, Triticum aestivum; conditions: Preemergence; for Plant response rating, Wheat (winter): 0 to 100 scale where 0 is no effect and 100 is complete control
# [2] = tested on: bedstraw; assay: Test B pre/postemergence bedstraw; type: in vivo, Galium aparine
# In short: (§1)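 Response is a visual 0-to-10 score relative to untreated plants, where 0 means no effect and 10 means complete control, taken twelve to sixteen days after application. Treatments went onto soil at planting and onto foliage of 1- to 4-leaf plants, using a surfactant-containing non-phytotoxic solvent.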
# [3] = tested on: wild oat; assay: Test E wild oat; type: in vivo, Avena fatua; conditions: Preemergence; for Plant response rating, Wild oat: 0 to 100 scale where 0 is no effect and 100 is complete control
# [4] = tested on: Italian ryegrass; assay: Test E Italian ryegrass; type: in vivo, Lolium multiflorum; conditions: Preemergence; for Plant response rating, I. Ryegrass: 0 to 100 scale where 0 is no effect and 100 is complete control
# [5] = tested on: blackgrass; assay: Test E blackgrass; type: in vivo, Alopecurus myosuroides; conditions: Preemergence; for Plant response rating, Blackgrass: 0 to 100 scale where 0 is no effect and 100 is complete control
# [6] = tested on: winter wheat; assay: Test E winter wheat; type: in vivo, Triticum aestivum; conditions: Postemergence, 0 to 100 scale
# In short: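 Greenhouse-grown plants are treated (postemergence: 1- to 4-leaf stage, sandy loam/potting mix 60:40), then evaluated visually versus untreated controls some 21 to 28 days later.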
# [7] = tested on: blackgrass; assay: Test B pre/postemergence blackgrass; type: in vivo, Alopecurus myosuroides
# In short: as §1
# [8] = tested on: winter barley; assay: Test E winter barley; type: in vivo, Hordeum vulgare; conditions: Preemergence; for Plant response rating, Barley (winter): 0 to 100 scale where 0 is no effect and 100 is complete control
# [9] = tested on: green foxtail; assay: Test E green foxtail; type: in vivo, Setaria viridis; conditions: Preemergence
# [10] = tested on: surinam grass; assay: Test B pre/postemergence surinam grass; type: in vivo, Brachiaria decumbens
# In short: as §1
# [11] = Postemergence, Rate 125 g/ha, scale of 0 to 10 where 0 is no effect and 10 is complete control
# [12] = Preemergence, Rate 62 g/ha, scale of 0 to 10 where 0 is no effect and 10 is complete control
# [13] = Preemergence, Rate 125 g/ha, 0 is no effect, 10 is complete control
# [14] = Preemergence, Rate 250 g/ha, scale 0 to 10, 0 is no effect, 10 is complete control
# [15] = Preemergence, Rate 500 g/ha, scale 0 to 10 (0 no effect, 10 complete control)
# [16] = Rate 62 g/ha, Postemergence, scale of 0 to 10 where 0 is no effect and 10 is complete control
# [17] = Rate 250 g/ha, Postemergence, scale 0 to 10, 0 is no effect, 10 is complete control
compound,measurement,setting,value
CC(C)N(C(=O)n1oc(=O)n([C@@H](C)c2ccccc2)c1=O)c1ccccc1 [Compound 173],Wheat (winter) plant response rating (0 to 100 scale),[1]; Rate 250 g/ha,20
same,"Plant response rating, Wheat (winter)",[1]; Rate 500 g/ha,30
same,"Plant response rating, Wheat (winter)",[1]; Rate 1000 g/ha,50
same,Bedstraw plant response rating,[2]; [11],0
same,Bedstraw plant response rating,[2]; [12],0
same,Bedstraw plant response rating (0 to 10 scale),[2]; [13],0
same,Bedstraw plant response rating,[2]; [14],0
same,Bedstraw plant response rating,[2]; [15],0
same,Bedstraw plant response rating,[2]; [16],0
same,"Plant response rating, Bedstraw",[2]; [17],4
same,Wild oat plant response rating (0 to 100 scale),[3]; Rate 250 g/ha,50
same,"Plant response rating, Wild oat",[3]; Rate 500 g/ha,45
same,"Plant response rating, Wild oat",[3]; Rate 1000 g/ha,50
same,I. Ryegrass plant response rating (0 to 100 scale),[4]; Rate 250 g/ha,35
same,"Plant response rating, I. Ryegrass",[4]; Rate 500 g/ha,45
same,"Plant response rating, I. Ryegrass",[4]; Rate 1000 g/ha,98
same,Blackgrass plant response rating (0 to 100 scale),[5]; Rate 250 g/ha,50
same,"Plant response rating, Blackgrass",[5]; Rate 500 g/ha,70
same,"Plant response rating, Blackgrass",[5]; Rate 1000 g/ha,98
same,"Plant response rating, Wheat (winter)","[6]; Rate 1000 g/ha, 0 is no effect and 100 is complete control",60
same,"Plant response rating, Wheat (winter)","[6]; Rate 500 g/ha, 0 is no effect, 100 is complete control",40
same,Blackgrass plant response rating,[7]; [11],0
same,Blackgrass plant response rating,[7]; [12],0
same,Blackgrass plant response rating (0 to 10 scale),[7]; [13],0
same,Blackgrass plant response rating,[7]; [14],0
same,Blackgrass plant response rating,[7]; [15],6
same,Blackgrass plant response rating,[7]; [16],0
same,"Plant response rating, Blackgrass",[7]; [17],2
same,Blackgrass plant response rating,"[7]; Rate 500 g/ha, Postemergence, scale 0 to 10",2
same,Barley (winter) plant response rating (0 to 100 scale),[8]; Rate 250 g/ha,30
same,"Plant response rating, Barley (winter)",[8]; Rate 500 g/ha,40
same,"Plant response rating, Barley (winter)",[8]; Rate 1000 g/ha,40
same,Green foxtail plant response rating (0 to 100 scale),[9]; Rate 250 g/ha,85
same,"Plant response rating, Green foxtail","[9]; Rate 1000 g/ha, 0 to 100 scale where 0 is no effect and 100 is complete control",100
same,B. signalgrass plant response rating,[10]; [11],0
same,B. signalgrass plant response rating,[10]; [12],0
same,B. signalgrass plant response rating (0 to 10 scale),[10]; [13],0
same,B. signalgrass plant response rating,[10]; [14],3
same,B. signalgrass plant response rating,[10]; [15],4
same,B. signalgrass plant response rating,[10]; [16],0
same,"Plant response rating, B. signalgrass",[10]; [17],0
same,B. signalgrass plant response rating,"[10]; Rate 500 g/ha, Postemergence, scale 0 to 10, 0 no effect, 10 complete control",0
